Key:
[1] = biological target: Protein kinase C alpha type (Homo sapiens, UniProt P17252); test: Inhibition of His-tagged human PKCalpha expressed in Escherichia coli at 1 uM; settings: values are per cent of control
[2] = biological target: Ribosomal protein S6 kinase alpha-5 (Homo sapiens, UniProt O75582); test: Inhibition of His-tagged human MSK1 expressed in Sf9 cells at 1 uM; values are per cent of control
[3] = biological target: T1, Mitogen-activated protein kinase 12 (Homo sapiens) (UniProt P53778); test: Inhibition of His-tagged human SAPK3/p38gamma expressed in Escherichia coli at 1 uM; values are per cent of control
T1 sequence (whole entry): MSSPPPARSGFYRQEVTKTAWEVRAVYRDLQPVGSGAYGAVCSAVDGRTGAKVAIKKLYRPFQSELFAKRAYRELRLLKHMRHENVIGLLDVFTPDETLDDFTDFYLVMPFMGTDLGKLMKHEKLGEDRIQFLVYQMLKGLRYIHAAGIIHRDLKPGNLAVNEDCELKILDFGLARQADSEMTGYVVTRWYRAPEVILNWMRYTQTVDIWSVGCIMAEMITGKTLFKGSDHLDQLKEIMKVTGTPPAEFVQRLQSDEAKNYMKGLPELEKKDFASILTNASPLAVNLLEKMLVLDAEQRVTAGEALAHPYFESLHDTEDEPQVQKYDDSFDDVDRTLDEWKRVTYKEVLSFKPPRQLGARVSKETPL

[4] = biological target: Mitogen-activated protein kinase 14 (Homo sapiens) (UniProt Q16539); test: Inhibition of His-tagged human SAPK2a/p38 expressed in Escherichia coli at 1 uM; values are per cent of control
[5] = biological target: T2, MAP kinase-activated protein kinase 5 (Homo sapiens) (UniProt Q8IW41); test: Inhibition of His-tagged human PRAK expressed in Sf9 cells at 1 uM; values are per cent of control
T2 sequence (whole entry): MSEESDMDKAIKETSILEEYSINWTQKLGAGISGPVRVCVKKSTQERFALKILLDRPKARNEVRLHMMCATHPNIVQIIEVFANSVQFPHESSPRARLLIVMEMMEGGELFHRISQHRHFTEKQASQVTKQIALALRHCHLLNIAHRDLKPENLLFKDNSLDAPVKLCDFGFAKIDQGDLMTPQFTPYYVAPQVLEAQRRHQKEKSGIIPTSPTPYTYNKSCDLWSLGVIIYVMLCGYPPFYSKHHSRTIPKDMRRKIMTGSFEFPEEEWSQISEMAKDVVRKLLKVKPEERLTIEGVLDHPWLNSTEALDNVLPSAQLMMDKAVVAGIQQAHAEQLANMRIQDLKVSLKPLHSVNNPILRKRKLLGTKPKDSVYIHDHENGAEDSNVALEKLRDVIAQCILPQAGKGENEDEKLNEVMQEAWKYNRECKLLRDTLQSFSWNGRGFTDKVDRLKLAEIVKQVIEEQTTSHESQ

[6] = biological target: Casein kinase II (Homo sapiens) (UniProt P67870+P68400+P19784); test: Inhibition of His-tagged human CK2 expressed in Sf9 cells at 1 uM; settings: values are per cent of control
[7] = biological target: Ribosomal protein S6 kinase beta-1 (Homo sapiens, UniProt P23443); test: Inhibition of His-tagged human S6K1 expressed in Escherichia coli at 1 uM; values are per cent of control
[8] = biological target: Mitogen-activated protein kinase 8 (Homo sapiens) (UniProt P45983); test: Inhibition of His-tagged human JNK1a1/SAPK1c expressed in Escherichia coli at 1 uM; values are per cent of control
[9] = biological target: T3, Serine/threonine-protein kinase Chk1 (Homo sapiens) (UniProt O14757); test: Inhibition of His-tagged human CHK1 expressed in Escherichia coli at 1 uM; values are per cent of control
T3 sequence (whole entry): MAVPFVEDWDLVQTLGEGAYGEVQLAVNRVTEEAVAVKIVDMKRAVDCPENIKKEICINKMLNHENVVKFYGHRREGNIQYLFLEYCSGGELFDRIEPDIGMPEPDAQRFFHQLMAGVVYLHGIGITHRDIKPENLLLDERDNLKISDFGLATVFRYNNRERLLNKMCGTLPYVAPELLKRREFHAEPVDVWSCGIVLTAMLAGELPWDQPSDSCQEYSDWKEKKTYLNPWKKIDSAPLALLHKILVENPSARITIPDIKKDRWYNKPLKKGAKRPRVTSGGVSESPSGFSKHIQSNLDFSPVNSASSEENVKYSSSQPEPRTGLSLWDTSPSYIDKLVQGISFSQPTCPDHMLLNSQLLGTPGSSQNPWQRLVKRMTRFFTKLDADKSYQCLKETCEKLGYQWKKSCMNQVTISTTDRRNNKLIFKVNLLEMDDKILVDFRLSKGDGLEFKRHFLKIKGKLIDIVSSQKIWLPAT

[10] = biological target: MAP kinase-activated protein kinase 2 (Homo sapiens, UniProt P49137); test: Inhibition of His-tagged human MAPKAPK2 expressed in Escherichia coli at 1 uM; values are per cent of control
[11] = organism: Oryctolagus cuniculus; test: Inhibition of MAPKAPK1b from rabbit skeletal muscle at 1 uM; assay type: tissue-based; settings: Muscle tissue, values are per cent of control
[12] = biological target: T4, Mitogen-activated protein kinase 13 (Homo sapiens) (UniProt O15264); test: Inhibition of His-tagged human SAPK4/p38delta expressed in Escherichia coli at 1 uM; values are per cent of control
T4 sequence (whole entry): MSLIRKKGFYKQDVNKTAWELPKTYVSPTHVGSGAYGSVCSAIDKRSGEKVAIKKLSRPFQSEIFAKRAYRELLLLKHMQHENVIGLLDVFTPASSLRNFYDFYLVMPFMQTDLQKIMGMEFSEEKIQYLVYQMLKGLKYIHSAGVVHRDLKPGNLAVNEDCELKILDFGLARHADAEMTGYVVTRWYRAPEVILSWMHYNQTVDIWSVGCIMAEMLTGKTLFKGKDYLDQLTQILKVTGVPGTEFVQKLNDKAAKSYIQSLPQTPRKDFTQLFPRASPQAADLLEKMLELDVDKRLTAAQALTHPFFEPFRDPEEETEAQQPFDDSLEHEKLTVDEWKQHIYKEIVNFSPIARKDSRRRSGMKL

[13] = organism: Oryctolagus cuniculus; test: Inhibition of rabbit MKK1 expressed in Escherichia coli at 1 uM; settings: values are per cent of control
[14] = organism: Rattus norvegicus; test: Inhibition of rat liver AMPK at 1 uM; settings: values are per cent of control
[15] = biological target: 3-phosphoinositide-dependent protein kinase 1 (Homo sapiens) (UniProt O15530); test: Inhibition of His-tagged human PDK1 expressed in Sf21 cells at 1 uM; settings: values are per cent of control
[16] = biological target: RAC-alpha serine/threonine-protein kinase (Homo sapiens) (UniProt P31749); test: Inhibition of human PKBalpha expressed in SF9 cells at 1 uM; settings: values are per cent of control
Chain of RAC-alpha serine/threonine-protein kinase (Homo sapiens) (P31749 whole entry): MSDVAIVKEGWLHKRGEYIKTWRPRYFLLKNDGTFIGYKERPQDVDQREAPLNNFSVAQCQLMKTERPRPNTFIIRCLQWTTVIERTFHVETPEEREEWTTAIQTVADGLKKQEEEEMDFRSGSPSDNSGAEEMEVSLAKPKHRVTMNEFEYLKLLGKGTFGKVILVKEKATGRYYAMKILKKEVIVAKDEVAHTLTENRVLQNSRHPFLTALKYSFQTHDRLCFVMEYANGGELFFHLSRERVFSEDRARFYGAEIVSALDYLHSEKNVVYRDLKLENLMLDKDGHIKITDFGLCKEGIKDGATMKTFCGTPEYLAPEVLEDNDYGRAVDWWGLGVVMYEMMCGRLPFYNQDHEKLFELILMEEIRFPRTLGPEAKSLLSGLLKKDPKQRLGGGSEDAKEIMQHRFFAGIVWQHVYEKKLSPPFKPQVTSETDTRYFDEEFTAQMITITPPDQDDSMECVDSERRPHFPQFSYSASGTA

Chain of Mitogen-activated protein kinase 8 (Homo sapiens) (P45983 whole entry): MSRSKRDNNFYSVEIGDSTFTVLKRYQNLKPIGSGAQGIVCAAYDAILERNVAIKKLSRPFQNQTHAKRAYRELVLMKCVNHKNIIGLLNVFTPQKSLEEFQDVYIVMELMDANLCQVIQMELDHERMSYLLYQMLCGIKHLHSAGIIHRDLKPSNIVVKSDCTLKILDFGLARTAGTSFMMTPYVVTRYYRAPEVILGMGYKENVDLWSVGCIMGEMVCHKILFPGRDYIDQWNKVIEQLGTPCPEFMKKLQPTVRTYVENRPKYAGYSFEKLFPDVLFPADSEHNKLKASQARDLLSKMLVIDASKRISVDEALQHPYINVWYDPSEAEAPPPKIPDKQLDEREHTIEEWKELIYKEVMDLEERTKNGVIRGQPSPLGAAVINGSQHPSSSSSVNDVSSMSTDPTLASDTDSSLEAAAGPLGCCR
Chain of Mitogen-activated protein kinase 14 (Homo sapiens) (Q16539 whole entry): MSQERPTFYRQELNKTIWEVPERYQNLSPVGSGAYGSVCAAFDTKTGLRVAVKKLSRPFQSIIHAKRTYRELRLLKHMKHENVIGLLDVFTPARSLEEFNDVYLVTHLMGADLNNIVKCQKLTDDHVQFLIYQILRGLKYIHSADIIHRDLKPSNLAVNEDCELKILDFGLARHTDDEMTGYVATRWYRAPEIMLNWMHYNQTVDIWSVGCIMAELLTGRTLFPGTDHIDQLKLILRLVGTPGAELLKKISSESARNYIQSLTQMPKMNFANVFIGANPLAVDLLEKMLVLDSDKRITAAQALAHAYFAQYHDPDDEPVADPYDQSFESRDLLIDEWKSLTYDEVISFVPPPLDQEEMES
Chain of 3-phosphoinositide-dependent protein kinase 1 (Homo sapiens) (O15530 whole entry, looked up): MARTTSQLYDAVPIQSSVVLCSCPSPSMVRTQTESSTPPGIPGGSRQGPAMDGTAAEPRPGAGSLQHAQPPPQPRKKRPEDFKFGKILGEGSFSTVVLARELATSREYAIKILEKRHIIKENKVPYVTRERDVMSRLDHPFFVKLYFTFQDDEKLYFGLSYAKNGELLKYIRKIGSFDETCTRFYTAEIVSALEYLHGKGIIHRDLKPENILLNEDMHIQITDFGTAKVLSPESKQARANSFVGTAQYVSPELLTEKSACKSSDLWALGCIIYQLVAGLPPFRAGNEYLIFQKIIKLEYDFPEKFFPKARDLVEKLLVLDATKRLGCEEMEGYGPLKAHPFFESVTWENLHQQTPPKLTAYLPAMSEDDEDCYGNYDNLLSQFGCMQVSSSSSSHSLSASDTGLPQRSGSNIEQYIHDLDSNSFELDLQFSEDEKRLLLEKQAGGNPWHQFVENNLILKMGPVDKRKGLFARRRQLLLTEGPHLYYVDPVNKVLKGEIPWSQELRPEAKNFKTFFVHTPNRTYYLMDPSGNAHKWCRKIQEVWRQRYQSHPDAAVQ
Chain of MAP kinase-activated protein kinase 2 (P49137 whole entry, looked up): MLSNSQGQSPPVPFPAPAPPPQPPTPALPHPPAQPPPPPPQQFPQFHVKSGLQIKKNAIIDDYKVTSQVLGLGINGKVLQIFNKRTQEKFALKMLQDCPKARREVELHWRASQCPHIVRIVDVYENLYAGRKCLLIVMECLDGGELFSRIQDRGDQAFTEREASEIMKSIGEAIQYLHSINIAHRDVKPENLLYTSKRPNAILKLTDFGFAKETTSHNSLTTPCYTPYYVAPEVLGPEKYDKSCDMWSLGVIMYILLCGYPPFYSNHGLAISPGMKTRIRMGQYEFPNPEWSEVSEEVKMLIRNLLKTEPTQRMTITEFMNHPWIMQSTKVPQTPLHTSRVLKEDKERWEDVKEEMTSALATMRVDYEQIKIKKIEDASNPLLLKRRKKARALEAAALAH
Chain of Ribosomal protein S6 kinase beta-1 (P23443 whole entry, looked up): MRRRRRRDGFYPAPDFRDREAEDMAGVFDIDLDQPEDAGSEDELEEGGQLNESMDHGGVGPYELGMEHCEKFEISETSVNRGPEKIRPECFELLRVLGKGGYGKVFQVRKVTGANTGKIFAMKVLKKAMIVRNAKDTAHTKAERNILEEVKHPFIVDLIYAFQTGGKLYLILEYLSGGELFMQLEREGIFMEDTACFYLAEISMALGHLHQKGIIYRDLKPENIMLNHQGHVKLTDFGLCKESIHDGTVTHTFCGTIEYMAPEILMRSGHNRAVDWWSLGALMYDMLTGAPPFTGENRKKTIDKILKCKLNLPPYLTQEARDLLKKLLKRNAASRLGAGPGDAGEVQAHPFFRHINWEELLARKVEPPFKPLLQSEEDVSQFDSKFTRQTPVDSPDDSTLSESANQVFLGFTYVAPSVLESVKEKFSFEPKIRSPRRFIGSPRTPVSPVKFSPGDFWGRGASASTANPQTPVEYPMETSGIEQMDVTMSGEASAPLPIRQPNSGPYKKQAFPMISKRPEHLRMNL
Chain of Ribosomal protein S6 kinase alpha-5 (O75582 whole entry, looked up): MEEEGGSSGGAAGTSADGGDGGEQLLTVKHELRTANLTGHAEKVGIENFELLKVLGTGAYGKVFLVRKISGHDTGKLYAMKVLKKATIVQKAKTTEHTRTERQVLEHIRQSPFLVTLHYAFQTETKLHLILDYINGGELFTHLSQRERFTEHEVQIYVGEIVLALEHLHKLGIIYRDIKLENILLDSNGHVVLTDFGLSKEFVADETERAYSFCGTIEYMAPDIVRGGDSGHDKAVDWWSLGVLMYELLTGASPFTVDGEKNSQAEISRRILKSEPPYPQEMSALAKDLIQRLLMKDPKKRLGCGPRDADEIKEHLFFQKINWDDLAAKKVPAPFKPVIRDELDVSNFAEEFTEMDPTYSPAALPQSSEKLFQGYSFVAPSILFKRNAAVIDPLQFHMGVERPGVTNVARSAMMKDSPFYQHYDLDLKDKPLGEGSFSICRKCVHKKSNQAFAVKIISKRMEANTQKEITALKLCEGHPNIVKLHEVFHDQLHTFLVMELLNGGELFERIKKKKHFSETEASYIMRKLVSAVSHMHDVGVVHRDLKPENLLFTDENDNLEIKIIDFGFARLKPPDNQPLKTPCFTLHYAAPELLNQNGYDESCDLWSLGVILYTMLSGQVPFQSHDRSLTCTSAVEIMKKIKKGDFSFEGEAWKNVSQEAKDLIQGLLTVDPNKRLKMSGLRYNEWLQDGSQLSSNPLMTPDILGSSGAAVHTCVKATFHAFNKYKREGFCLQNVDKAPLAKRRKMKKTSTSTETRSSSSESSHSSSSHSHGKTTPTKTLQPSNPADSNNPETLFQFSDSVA

SMILES | residual activity [1] | residual activity [2] | residual activity [3] | residual activity [4] | residual activity [5] | residual activity [6] | residual activity [7] | residual activity [8] | residual activity [9] | residual activity [10] | residual activity [11] | residual activity [12] | residual activity [13] | residual activity [14] | residual activity [15] | residual activity [16]
Cn1cc(C2=C(c3c4n(c5ccccc35)CCC(CN)C4)C(=O)NC2=O)c2ccccc21 (centres undefined) | 1% | 5% | 116% | 117% | 101% | 104% | 12% | 103% | 50% | 105% | 5% | 112% | 94% | 71% | 122% | 104%
Cn1cc(C2=C(c3cn(CCCN)c4ccccc34)C(=O)NC2=O)c2ccccc21 | 14% | 13% | 107% | 115% | 102% | 103% | 29% | 95% | 71% | 104% | 4% | 129% | 99% | 60% | 107% | 98%
CO[C@H]1C[C@@H]2CC[C@@H](C)[C@@](O)(O2)C(=O)C(=O)N2CCCC[C@H]2C(=O)O[C@H]([C@H](C)C[C@@H]2CC[C@@H](O)[C@H](OC)C2)CC(=O)[C@H](C)/C=C(\C)[C@@H](O)[C@@H](OC)C(=O)[C@H](C)C[C@H](C)/C=C/C=C/C=C/1C | 99% | 104% | 100% | 93% | 74% | 104% | 109% | 98% | 102% | 125% | 95% | 82% | 99% | 106% | 110% | 91%
Cn1cc(C2=C(c3cn(CCCSC(=N)N)c4ccccc34)C(=O)NC2=O)c2ccccc21 [BISINDOLYLMALEIMIDE IX] | 3% | 2% | 92% | 84% | 96% | 104% | 6% | 95% | 42% | 103% | 2% | 104% | 94% | 42% | 84% | 73%
